Experiments:
Septoria nodorum = assay: Leaf disk assay, Septoria nodorum (wheat glume blotch), preventive; type: in vivo; conditions: Parastagonospora nodorum, foliar, 96 h, wheat leaf segments, assessed four days after inoculation, read-out: control of fungal infection, Septoria nodorum
Plasmopara viticola = assay: Leaf disk assay, Plasmopara viticola (downy mildew of grapevine), preventive; type: in vivo; conditions: foliar, 168 h, grapevine leaf disks, assessed seven days after inoculation, read-out: control of fungal infection, Plasmopara viticola
[1] = test system: Puccinia recondita f.sp. tritici; assay: Leaf disk assay, Puccinia recondita f.sp. tritici (wheat brown rust), preventive; type: in vivo; conditions: foliar, 216 h, wheat leaf segments, assessed nine days after inoculation, read-out: control of fungal infection, Puccinia recondita f.sp. tritici
Pyrenophora teres = assay: Leaf disk assay, Pyrenophora teres (barley net blotch), preventive; type: in vivo; conditions: foliar, 96 h, barley leaf segments, assessed four days after inoculation, read-out: control of fungal infection, Pyrenophora teres
Experimental: The compounds were tested in a leaf disk assay, with methods described below. The test compounds were dissolved in DMSO and diluted into water to 200 ppm. In the case of the test on Pythium ultimum, they were dissolved in DMSO and diluted into water to 20 ppm. Pyrenophora teres (barley net blotch): Barley leaf segments were placed on agar in a 24-well plate and sprayed with a solution of the test compound. After allowing to dry completely, for between 12 and 24 hours, the leaf disks were inoculated with a spore suspension of the fungus. After appropriate incubation the activity of a compound was assessed four days after inoculation as preventive fungicidal activity.

[2] = test system: Erysiphe graminis f.sp. tritici; assay: Leaf disk assay, Erysiphe graminis f.sp. tritici (wheat powdery mildew), preventive; type: in vivo; conditions: Blumeria graminis, foliar, 96 h, wheat leaf segments, assessed four days after inoculation, read-out: control of fungal infection, Erysiphe graminis f.sp. tritici
How it was run: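 Wheat leaf segments on agar were sprayed with compound at 200 ppm (DMSO stock diluted in water). After 12–24 h drying they were inoculated with powdery mildew spores. Preventive activity was scored 4 days after inoculation.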

Phytophthora infestans = assay: whole plant or invertebrate; type: in vivo; conditions: in Solanum lycopersicum, foliar, 96 h, read-out: control of fungal infection, Phytophthora infestans
Pythium ultimum = assay: Growth inhibition in potato dextrose broth, Pythium ultimum (damping off), photometric; type: cell-based; conditions: Globisporangium ultimum, 24° C., 48 hours, read-out: control of fungal infection, Pythium ultimum
How it was run: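 Growth inhibition was read photometrically at 48 hours after incubation at 24° C. Test compound was diluted from DMSO to 20 ppm in water and combined with potato dextrose broth seeded with Pythium ultimum mycelial fragments.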

Septoria tritici = assay: Growth inhibition in nutrient broth, Septoria tritici (leaf blotch), photometric; type: cell-based; conditions: Zymoseptoria tritici, PDB broth, 24 C, 72 hrs, read-out: control of fungal infection, Septoria tritici
Fusarium culmorum = assay: Growth inhibition in nutrient broth, Fusarium culmorum (root rot), photometric; type: cell-based; conditions: 48 h, read-out: control of fungal infection, Fusarium culmorum
Experimental: The compounds were tested in a leaf disk assay, with methods described below. The test compounds were dissolved in DMSO and diluted into water to 200 ppm. In the case of the test on Pythium ultimum, they were dissolved in DMSO and diluted into water to 20 ppm.
Fusarium culmorum (root rot): Conidia of the fungus from cryogenic storage were directly mixed into nutrient broth (PDB potato dextrose broth). After placing a (DMSO) solution of the test compounds into a microtiter plate (96-well format) the nutrient broth containing the fungal spores was added. The test plates were incubated at 24 C and the inhibition of growth was determined photometrically after 48 hrs.

C#Cc1cnc2c(Cl)cc(OC(SC)C(=O)NC(C)(C)C#C)cc2c1 (stereo not shown) [Example 19]
≥ 60%: pest or weed control at 200 ppm (Septoria nodorum) | pest or weed control at 200 ppm (Plasmopara viticola) | pest or weed control at 200 ppm [1] | pest or weed control at 200 ppm (Pyrenophora teres) | pest or weed control at 200 ppm [2] | pest or weed control at 200 ppm (Phytophthora infestans)

C#Cc1cnc2ccc(OC(SC)C(=O)NC(C)(C#C)COC)cc2c1 (stereo not shown) [Example 129]
≥ 60%: pest or weed control at 200 ppm (Septoria nodorum) | pest or weed control at 200 ppm (Plasmopara viticola) | inhibition of growth at 20 ppm (Pythium ultimum) | inhibition of growth at 60 ppm (Septoria tritici) | pest or weed control at 200 ppm [1] | pest or weed control at 200 ppm (Pyrenophora teres) | pest or weed control at 200 ppm [2] | pest or weed control at 200 ppm (Phytophthora infestans)

C#Cc1cnc2c(C)cc(OC(SC)C(=O)NC(C)(COC)COC)cc2c1 (stereo not shown) [Example 133]
≥ 60%: pest or weed control at 200 ppm (Septoria nodorum) | pest or weed control at 200 ppm (Plasmopara viticola) | inhibition of growth at 60 ppm (Septoria tritici) | pest or weed control at 200 ppm [1] | pest or weed control at 200 ppm (Pyrenophora teres) | pest or weed control at 200 ppm [2] | pest or weed control at 200 ppm (Phytophthora infestans)

C#Cc1cnc2c(C)cc(OC(CC)C(=O)NC(C)(C)C#CC)cc2c1 (stereo not shown) [Example 113]
≥ 60%: pest or weed control at 200 ppm (Septoria nodorum) | pest or weed control at 200 ppm (Plasmopara viticola) | inhibition of growth at 60 ppm (Septoria tritici) | pest or weed control at 200 ppm [1] | pest or weed control at 200 ppm (Pyrenophora teres) | pest or weed control at 200 ppm [2] | pest or weed control at 200 ppm (Phytophthora infestans)

C#Cc1cnc2c(C)cc(OC(SC)C(=O)NC(C)(C#N)CF)cc2c1 (stereo not shown) [Example 102]
≥ 60%: pest or weed control at 200 ppm [1] | pest or weed control at 200 ppm (Pyrenophora teres)

C#Cc1cnc2c(Cl)cc(OC(SC)C(=O)NC3(C)CCC3)cc2c1 (stereo not shown) [Example 203]
≥ 60%: pest or weed control at 200 ppm (Septoria nodorum) | pest or weed control at 200 ppm (Plasmopara viticola) | inhibition of growth at 20 ppm (Pythium ultimum) | inhibition of growth at 60 ppm (Septoria tritici) | pest or weed control at 200 ppm [1] | pest or weed control at 200 ppm (Pyrenophora teres) | pest or weed control at 200 ppm [2] | pest or weed control at 200 ppm (Phytophthora infestans)

C#Cc1cnc2ccc(OC(SC)C(=O)NC3CCCC3)cc2c1 (stereo not shown) [Example 214]
≥ 60%: inhibition of growth at 60 ppm (Fusarium culmorum) | pest or weed control at 200 ppm (Septoria nodorum) | pest or weed control at 200 ppm (Plasmopara viticola) | inhibition of growth at 20 ppm (Pythium ultimum) | inhibition of growth at 60 ppm (Septoria tritici) | pest or weed control at 200 ppm [1] | pest or weed control at 200 ppm [2] | pest or weed control at 200 ppm (Phytophthora infestans)

C#Cc1cnc2cc(F)c(OC(SC)C(=O)NC(C)(C)C#CCOCC)cc2c1 (stereo not shown) [Example 191]
≥ 60%: inhibition of growth at 60 ppm (Fusarium culmorum) | pest or weed control at 200 ppm (Septoria nodorum) | pest or weed control at 200 ppm (Plasmopara viticola) | inhibition of growth at 20 ppm (Pythium ultimum) | inhibition of growth at 60 ppm (Septoria tritici) | pest or weed control at 200 ppm [1] | pest or weed control at 200 ppm [2] | pest or weed control at 200 ppm (Phytophthora infestans)

C#Cc1cnc2c(F)cc(OC(SC)C(=O)NC(C)(C)C#CCOC)cc2c1 (stereo not shown) [Example 218]
≥ 60%: inhibition of growth at 60 ppm (Fusarium culmorum) | pest or weed control at 200 ppm (Septoria nodorum) | pest or weed control at 200 ppm (Plasmopara viticola) | inhibition of growth at 20 ppm (Pythium ultimum) | inhibition of growth at 60 ppm (Septoria tritici) | pest or weed control at 200 ppm [1] | pest or weed control at 200 ppm [2] | pest or weed control at 200 ppm (Phytophthora infestans)

C#Cc1cnc2c(Cl)cc(OC(SC)C(=O)NC(C)(C)C#CCOC)cc2c1 (stereo not shown) [Example 62]
≥ 60%: pest or weed control at 200 ppm (Septoria nodorum) | pest or weed control at 200 ppm (Plasmopara viticola) | inhibition of growth at 60 ppm (Septoria tritici) | pest or weed control at 200 ppm [1] | pest or weed control at 200 ppm (Pyrenophora teres) | pest or weed control at 200 ppm [2] | pest or weed control at 200 ppm (Phytophthora infestans)

C#Cc1cnc2ccc(OC(SC)C(=O)NC(C)C)cc2c1 (stereo not shown) [Example 98]
≥ 60%: inhibition of growth at 60 ppm (Fusarium culmorum) | pest or weed control at 200 ppm (Septoria nodorum) | pest or weed control at 200 ppm (Plasmopara viticola) | inhibition of growth at 20 ppm (Pythium ultimum) | inhibition of growth at 60 ppm (Septoria tritici) | pest or weed control at 200 ppm [1] | pest or weed control at 200 ppm [2] | pest or weed control at 200 ppm (Phytophthora infestans)

C#Cc1cnc2cc(F)c(OC(SC)C(=O)NC(C)C)cc2c1 (stereo not shown) [Example 181]
≥ 60%: inhibition of growth at 60 ppm (Fusarium culmorum) | pest or weed control at 200 ppm (Septoria nodorum) | pest or weed control at 200 ppm (Plasmopara viticola) | inhibition of growth at 20 ppm (Pythium ultimum) | inhibition of growth at 60 ppm (Septoria tritici) | pest or weed control at 200 ppm [1] | pest or weed control at 200 ppm [2] | pest or weed control at 200 ppm (Phytophthora infestans)

C#Cc1cnc2cc(F)c(OC(SC)C(=O)NC(C)(C)COCC)cc2c1 (stereo not shown) [Example 200]
≥ 60%: inhibition of growth at 60 ppm (Fusarium culmorum) | pest or weed control at 200 ppm (Septoria nodorum) | pest or weed control at 200 ppm (Plasmopara viticola) | inhibition of growth at 20 ppm (Pythium ultimum) | inhibition of growth at 60 ppm (Septoria tritici) | pest or weed control at 200 ppm [1] | pest or weed control at 200 ppm [2] | pest or weed control at 200 ppm (Phytophthora infestans)

C#Cc1cnc2c(Cl)cc(OC(SC)C(=O)NC(C)(C)C#CCC)cc2c1 (stereo not shown) [Example 122]
≥ 60%: pest or weed control at 200 ppm (Septoria nodorum) | pest or weed control at 200 ppm (Plasmopara viticola) | inhibition of growth at 20 ppm (Pythium ultimum) | inhibition of growth at 60 ppm (Septoria tritici) | pest or weed control at 200 ppm [1] | pest or weed control at 200 ppm (Pyrenophora teres) | pest or weed control at 200 ppm [2] | pest or weed control at 200 ppm (Phytophthora infestans)

C#Cc1cnc2c(Cl)cc(OC(SC)C(=O)NC(C)(C)COC)cc2c1 (stereo not shown) [Example 74]
≥ 60%: pest or weed control at 200 ppm (Septoria nodorum) | pest or weed control at 200 ppm (Plasmopara viticola) | inhibition of growth at 20 ppm (Pythium ultimum) | inhibition of growth at 60 ppm (Septoria tritici) | pest or weed control at 200 ppm [1] | pest or weed control at 200 ppm (Pyrenophora teres) | pest or weed control at 200 ppm [2] | pest or weed control at 200 ppm (Phytophthora infestans)

C#Cc1cnc2cc(F)c(OC(SC)C(=O)NC(C)(C)C#CCOCC=C)cc2c1 (stereo not shown) [Example 199]
≥ 60%: inhibition of growth at 60 ppm (Fusarium culmorum) | pest or weed control at 200 ppm (Septoria nodorum) | pest or weed control at 200 ppm (Plasmopara viticola) | inhibition of growth at 20 ppm (Pythium ultimum) | inhibition of growth at 60 ppm (Septoria tritici) | pest or weed control at 200 ppm [1] | pest or weed control at 200 ppm [2] | pest or weed control at 200 ppm (Phytophthora infestans)

C#CCOCC(C)(C)NC(=O)C(OC)Oc1ccc2ncc(C#C)cc2c1 (stereo not shown) [Example 127]
≥ 60%: inhibition of growth at 60 ppm (Fusarium culmorum) | pest or weed control at 200 ppm (Septoria nodorum) | pest or weed control at 200 ppm (Plasmopara viticola) | inhibition of growth at 20 ppm (Pythium ultimum) | inhibition of growth at 60 ppm (Septoria tritici) | pest or weed control at 200 ppm [1] | pest or weed control at 200 ppm [2] | pest or weed control at 200 ppm (Phytophthora infestans)

C#Cc1cnc2ccc(OC(SC)C(=O)NC3(C#C)CCCCC3)cc2c1 (stereo not shown) [Example 206]
≥ 60%: inhibition of growth at 60 ppm (Fusarium culmorum) | pest or weed control at 200 ppm (Septoria nodorum) | pest or weed control at 200 ppm (Plasmopara viticola) | inhibition of growth at 20 ppm (Pythium ultimum) | inhibition of growth at 60 ppm (Septoria tritici) | pest or weed control at 200 ppm [1] | pest or weed control at 200 ppm [2] | pest or weed control at 200 ppm (Phytophthora infestans)

C#CCOCC#CC(C)(C)NC(=O)C(Oc1cc2cc(C#C)cnc2cc1F)SC (stereo not shown) [Example 198]
≥ 60%: inhibition of growth at 60 ppm (Fusarium culmorum) | pest or weed control at 200 ppm (Septoria nodorum) | pest or weed control at 200 ppm (Plasmopara viticola) | inhibition of growth at 20 ppm (Pythium ultimum) | inhibition of growth at 60 ppm (Septoria tritici) | pest or weed control at 200 ppm [1] | pest or weed control at 200 ppm [2] | pest or weed control at 200 ppm (Phytophthora infestans)

C#Cc1cnc2c(C)cc(OC(SC)C(=O)NC(C)(C)COCOC)cc2c1 (stereo not shown) [Example 68]
≥ 60%: pest or weed control at 200 ppm (Septoria nodorum) | pest or weed control at 200 ppm (Plasmopara viticola) | inhibition of growth at 60 ppm (Septoria tritici) | pest or weed control at 200 ppm [1] | pest or weed control at 200 ppm (Pyrenophora teres) | pest or weed control at 200 ppm [2] | pest or weed control at 200 ppm (Phytophthora infestans)

C#Cc1cnc2ccc(OC(SC)C(=O)NC(C)(C#C)C#C)cc2c1 (stereo not shown) [Example 159]
≥ 60%: inhibition of growth at 60 ppm (Fusarium culmorum) | pest or weed control at 200 ppm (Septoria nodorum) | pest or weed control at 200 ppm (Plasmopara viticola) | inhibition of growth at 20 ppm (Pythium ultimum) | inhibition of growth at 60 ppm (Septoria tritici) | pest or weed control at 200 ppm [1] | pest or weed control at 200 ppm [2] | pest or weed control at 200 ppm (Phytophthora infestans)

C#Cc1cnc2cc(F)c(OC(SC)C(=O)NC(C)(C#C)CC)cc2c1 (stereo not shown) [Example 188]
≥ 60%: inhibition of growth at 60 ppm (Fusarium culmorum) | pest or weed control at 200 ppm (Septoria nodorum) | pest or weed control at 200 ppm (Plasmopara viticola) | inhibition of growth at 20 ppm (Pythium ultimum) | inhibition of growth at 60 ppm (Septoria tritici) | pest or weed control at 200 ppm [1] | pest or weed control at 200 ppm [2] | pest or weed control at 200 ppm (Phytophthora infestans)

C#Cc1cnc2cc(F)c(OC(SC)C(=O)NC(C)(C)C#CCCOC)cc2c1 (stereo not shown) [Example 189]
≥ 60%: inhibition of growth at 60 ppm (Fusarium culmorum) | pest or weed control at 200 ppm (Septoria nodorum) | pest or weed control at 200 ppm (Plasmopara viticola) | inhibition of growth at 20 ppm (Pythium ultimum) | inhibition of growth at 60 ppm (Septoria tritici) | pest or weed control at 200 ppm [1] | pest or weed control at 200 ppm [2] | pest or weed control at 200 ppm (Phytophthora infestans)

Reference: US8415272B2, “Quinoline derivatives and their use as fungicides” (Syngenta Crop Protection LLC, priority 2008, dated 2013)
